# Source: patent US20100204149A1, “USE OF OCTREOTIDE AS A THERAPEUTIC AGENT” (priority 2007, published 2010)
# Tested on: drug-resistant Mycobacterium tuberculosis
# Conditions: 5 micrograms per ml
smiles,measurement,value
"C[C@@H](O)[C@@H]1NC(=O)[C@H](CCCCN)NC(=O)[C@@H](Cc2c[nH]c3ccccc23)NC(=O)[C@H](Cc2ccccc2)NC(=O)[C@@H](NC(=O)[C@H](N)Cc2ccccc2)CSSC[C@@H](C(=O)N[C@H](CO)[C@@H](C)O)NC1=O [Octreotide, H-D-Phe-Cys-Phe-D-Trp-Lys-Thr-Cys-L-threoninol]",% inhibition,100.0%
